Earlier results, collected in article PMC10707982, “Solubility and Thermodynamics Data of Cabozantinib Malate in Various Aqueous Solutions of Dimethyl Sulfoxide at Different Temperatures” (Molecules, 2023).

Parameters: method as in doi:10.1016/j.molliq.2020.115146
Details: neat solvent; cited from earlier work

Structure (SMILES)	HSP of neat solvent (δ1, δ2) [MPa^1/2]
C[S+](C)[O-] [DMSO, dimethyl sulfoxide]	23.60
O [H2O, water]	47.80
